Entries after “also recorded” stand apart in the source; their conditions may differ.
Legend:
NOTCH1 processing = assay: Western blot analysis of activated NOTCH1 (NOTCH1IC) in GSI-sensitive and GSI-resistant T-ALL cell lines; type: cell-based, human; details: Comp E 100 nM, 24 hours
Experimental: FIG. 7. CompE treatment effectively blocks NOTCH1 processing in GSI-sensitive and resistant T-ALL cells. Western blot analysis of activated NOTCH1 (NOTCH1IC) levels in GSI-sensitive and resistant cell lines after 24 hours treatment with Comp E (100 nM). α-Tubulin levels are shown as loading control. Lower molecular weight bands correspond to activated NOTCH1 protein in cell lines harboring mutations that result in C-terminal truncations of the PEST domain (NOTCH 1IC-ΔPEST).
(§1) Antibodies against activated NOTCH1 (Val1744, Cell Signaling); PTEN (clone 6H2.1, Cascade Biosciences), phospho-AKT (Ser473), AKT (Cell Signaling), LC3, and α-tubulin (TU-02, Santa Cruz Biotechnology) were used according to standard procedures. PTEN immunostaining of formalin-fixed paraffin-embedded tissue sections was performed after heat-induced epitope retrieval in a microwave in citrate buffer (pH6.0). PTEN antibody (Zymed) was used at a 1:50 dilution. Slides were incubated at room temperature overnight before antigen detection using a Ventana automated staining platform (Ventana) and diaminobenzidine (DAB) detection.

HPB-ALL cells = assay: Glucose uptake and oxidation in HPB-ALL cells; type: cell-based, human; details: CompE 100 nM for 96 hours
From the text: (§2) FIG. 3. NOTCH1 regulates PTEN expression, AKT signaling and glucose metabolism. (a) Real-time PCR analysis of PTEN transcript levels upon NOTCH1 inhibition by GSI in CUTLL1 and HPB-ALL relative to (DMSO) controls. GAPDH levels were used as reference control. (b) Western blot analysis of PTEN and p-AKT (Ser473) in GSI sensitive T-ALL cell lines treated with CompE. AKT and α-Tubulin are shown as loading controls. (c) Real-time PCR analysis of Hes1 and PTEN expression in mouse DN3 thymocytes cocultured with stromal cells (OP9) or stromal cells expressing the NOTCH1 ligand Delta-like-1 (OP9-DL1). Data are means +/− standard deviation of duplicate (day 1) and triplicate (day 2) experiments. (d) Glucose uptake analysis in HPB-ALL and P12ICHIKAWA T-ALL cell lines in basal conditions (vehicle treatment only). (e) Glucose oxidation analysis in HPB-ALL and P12-ICHIKAWA T-ALL cell lines in basal conditions (vehicle treatment only). […]
(§3) Glucose uptake and oxidation were analyzed in T-ALL cells treated with GSI (CompE 100 nM for 96 hours) or vehicle only (DMSO) controls. […] For glucose uptake, cells were incubated with 0.1 mM (2 μCi/ml) 2-[3H]-deoxy-glucose, then washed in cold PBS and solubilized in 0.1% SDS and analyzed by scintillation counting. […] Glucose oxidation was measured as the amount of ^14CO2 captured in glass fiber filters previously soaked in 5% KOH. […]

P12ICHIKAWA cells = assay: Glucose uptake and oxidation in P12-ICHIKAWA cells; type: cell-based, human; details: CompE 100 nM for 96 hours
From the text: as §2, §3

DELTEX1 = assay: Quantitative RT-PCR analysis of DELTEX1 expression in GSI-sensitive and resistant T-ALL cell lines; type: cell-based, human; details: Comp E 100 nM, 24 hours
Experimental: FIG. 8. CompE treatment effectively down regulates the expression of DELTEX1 in GSI-sensitive and resistant T-ALL cells. (a and b) Quantitative RT-PCR analysis of DELTEX1 expression in GSI-sensitive and resistant cell lines after 24 hours of treatment with Comp E (100 nM). Relative expression levels were calculated by the ΔΔCt method using GAPDH as a reference control. Data are means +/− standard deviation.
(§4) Total RNA from T-ALL cell lines was extracted with RNAqueous kit (Ambion) following the manufacturer's instructions. cDNA was generated with the ThermoScript RT-PCR system (Invitrogen) and analyzed by quantitative real-time PCR (SYBR Green RT-PCR Core Reagents kit and the 7300 Real-Time PCR System, both from Applied Biosystems). Similar procedures were used to analyze RNA from DN3 cells purified from OP9 cocultures: Trizol method (Invitrogen) for RNA isolation, Omniscript RT kit (Qiagen) for cDNA synthesis and QuantiTect SYBR Green PCR kit (Qiagen) and the Applied Biosystems Sequence Detection System 7000 for PCR. Relative expression levels were based on GAPDH and β-actin as reference controls.

p-AKT (Ser473) = assay: Western blot analysis of PTEN and p-AKT (Ser473) in GSI sensitive T-ALL cell lines; type: cell-based, human; details: GSI-sensitive/PTEN-positive T-ALL cell lines
From the text: FIG. 3. NOTCH1 regulates PTEN expression, AKT signaling and glucose metabolism. (a) Real-time PCR analysis of PTEN transcript levels upon NOTCH1 inhibition by GSI in CUTLL1 and HPB-ALL relative to (DMSO) controls. GAPDH levels were used as reference control. (b) Western blot analysis of PTEN and p-AKT (Ser473) in GSI sensitive T-ALL cell lines treated with CompE. AKT and α-Tubulin are shown as loading controls. (c) Real-time PCR analysis of Hes1 and PTEN expression in mouse DN3 thymocytes cocultured with stromal cells (OP9) or stromal cells expressing the NOTCH1 ligand Delta-like-1 (OP9-DL1). Data are means +/− standard deviation of duplicate (day 1) and triplicate (day 2) experiments. (d) Glucose uptake analysis in HPB-ALL and P12ICHIKAWA T-ALL cell lines in basal conditions (vehicle treatment only). (e) Glucose oxidation analysis in HPB-ALL and P12-ICHIKAWA T-ALL cell lines in basal conditions (vehicle treatment only). (f) Effects of GSI treatment in glucose uptake in HPB-ALL and P12-ICHIKAWA T-ALL cells. (g) Effects of GSI treatment in glucose oxidation in HPB-ALL and P12-ICHIKAWA T-ALL cells. Data shown in (d) and (f) are means +/− standard deviation of triplicates. Data shown in (e) and (g) are means +/− standard deviation of duplicates. P values in (a) and (c)-(g) were derived from Student's t-test. […]

PTEN = assay: Real-time PCR analysis of PTEN transcript levels upon NOTCH1 inhibition by GSI; type: cell-based, human; details: GSI-sensitive/PTEN-positive cells (CUTLL1, HPB-ALL)
From the text: as §2, with “experiments.” for “experiments. (d) Glucose uptake analysis in HPB-ALL and P12ICHIKAWA T-ALL cell lines in basal conditions (vehicle treatment only). (e) Glucose oxidation analysis in HPB-ALL and P12-ICHIKAWA T-ALL cell lines in basal conditions (vehicle treatment only).”
as §4, with “Relative expression levels were based on GAPDH and β-actin as reference controls.” left out

CUTLL1 cells [1] = assay: Autophagy analysis (electron microscopy, LC3 Western blot) in CUTLL1 cells; type: cell-based, human
Experimental: FIG. 11. […] (a, b) Transmission electron microscopy analysis of an early pass culture of CUTLL1 cells treated with vehicle control (DMSO) or GSI ([…] CompE) for 6 days. White arrow heads indicate phagosomes. Black arrowheads indicate mitochondria. (c) Quantitation of double membrane structures excluding mitochondria in control (DMSO) and GSI (CompE)-treated cells. Horizontal lines indicate the median. P values were derived from the Wilcoxon rank sum test. (d) Western blot analysis of the phagosome-associated LC3 protein in CUTLL1 cells treated with DMSO or CompE for 48 hours.
as §1
Electron microscopy. […] Double membrane structures, excluding mitochondria, were counted in sample preparations of an early-pass culture of CUTLL1 cells treated with DMSO or CompE (500 nM) for 6 days.

DND41 cells = assay: Cell size (flow cytometry) and cell growth (MTT) assays in DND41 cells; type: cell-based, human; details: CompE 100 nM for 4 days
Experimental: (§5) FIG. 2. PTEN loss and AKT activation induce GSI resistance in T-ALL. […] No protective effect was observed by expression of a control shRNA targeting the luciferase gene (shRNA LUC). Mean FSC-H values for GSI and vehicle only treatment controls are indicated. Bar graphs represent means +/− standard deviation of triplicate samples. P values were derived from Student's t-test.
(§6) Changes in cell size were monitored by flow cytometry after NOTCH1 inactivation by GSI treatment (CompE 100 nM) and upon lentiviral shRNA knock-down of NOTCH1. Cell growth ratios were determined by a colorimetric assay using the Cell Proliferation Kit I (MTT) (Roche) in cells treated with inhibitors or vehicle treated controls.

CUTLL1 cells [2] = assay: Cell size (flow cytometry) and cell growth (MTT) assays in CUTLL1 cells; type: cell-based, human; details: CompE 100 nM for 4 days
Experimental: as §5, §6

[3] = system: Drosophila ey-Gal4>DI flies; assay: Drosophila DAPT treatments of flies overexpressing Delta (ey-Gal4>DI); type: in vivo
From the text: FIG. 16. Inhibition of NOTCH signaling with GSI can suppress overgrowth caused by overexpression of Delta in vivo. (a) Quantification of NOTCH-like eye growth phenotypes associated with treatment with the presenilin/γ-secretase inhibitor DAPT in flies that overexpressed the NOTCH ligand Delta, during the proliferation phase of eye development. Genotype is ey-Gal4 UAS-DI (hereafter, ey-Gal4>DI). (b) Quantification of other NOTCH-like wing phenotypes (loss of wing margin and small wing size) in the ey-Gal4>DI treated animals. For each of the DAPT concentrations shown, the number of eyes and wings quantified were: n=215 (0 mM of DAPT), n=202 (0.25 mM), n=455 (0.5 mM) and n=318 (1 mM). Representative data from two independent experiments are shown.
Drosophila DAPT treatments. The γ-secretase inhibitor DAPT prevents NOTCH processing, translocation and signaling in cell culture and induces developmental defects in Drosophila similar to those caused by genetic reduction of NOTCH signaling. Stock solutions of the compound in ethanol were added to 2.5 ml of distilled water and dried potato food were prepared. Flies carrying a Delta transgene (UAS-DI) and the eye-specific Gal4 driver, ey-Gal4 (hereafter, ey-Gal4>DI) were kept on standard fly food at 26° C. for 3 days (72 hours) and the progeny were collected and transferred to the vials containing the food mixed with DAPT and allowed to progress through development in the presence of DAPT until closure.

[4] = non-lethal doses (1 mM) in food

SMILES: C[C@H](NC(=O)Cc1cc(F)cc(F)c1)C(=O)N[C@H]1N=C(c2ccccc2)c2ccccc2N(C)C1=O [CompE, (2S)-2-{[(3,5-Difluorophenyl)acetyl]amino}-N-[(3S)1-methyl-2-oxo-5-phenyl-2,3-dihydro-1H-1,4-benzodiazepin-3-yl]propanamide]
- NOTCH1 processing (activated NOTCH1, NOTCH1IC levels) (NOTCH1 processing): effectively block NOTCH1 processing in all cell lines; also recorded: showed NOTCH1 inhibition
- glucose oxidation (HPB-ALL cells): significant reductions
- glucose uptake (HPB-ALL cells): significant reductions
- glucose oxidation (P12ICHIKAWA cells): not affected
- glucose uptake (P12ICHIKAWA cells): not affected
- NOTCH1 signaling (DELTEX1 expression) (DELTEX1): effectively blocks NOTCH1 signaling and downregulates the expression of genes directly regulated by NOTCH1
- AKT Ser473 phosphorylation (p-AKT (Ser473)): decreased Ser473 phosphorylation on AKT
- PTEN expression (transcript levels) (PTEN): significant upregulation of PTEN expression
- autophagy (transmission electron microscopy, double membrane structures) (CUTLL1 cells [1]; 500 nM CompE for 6 days): induces autophagy
- phagosome-associated LC3 protein (Western blot) (CUTLL1 cells [1]; CompE for 48 hours): induced the LC3-II isoform
- cell growth (DND41 cells): reduced cell growth
- cell size (DND41 cells): cell size defects
- cell growth (CUTLL1 cells [2]): decreased cell growth
- cell size (FSC-H) (CUTLL1 cells [2]): Decreased cell size

SMILES: C[C@H](NC(=O)Cc1cc(F)cc(F)c1)C(=O)N[C@H](C(=O)OC(C)(C)C)c1ccccc1 [DAPT, N-[N-(3,5-difluorophenacetyl)-L-alanyl]-Sphenylglycine-t-butylester]
- eye growth induced by Delta overexpression ([3]; ey-Gal4>DI flies, DAPT in food): suppression of eye overgrowth; also recorded: prevented eye growth induced by Delta overexpression
- wing phenotype ([3]; ey-Gal4>DI flies, DAPT in food): wing defects equivalent to a genetic reduction of NOTCH activity
- Delta-induced eye overgrowth [3, 4]: inhibits Delta-induced overgrowth
- eye and wing size [3, 4]: eyes and wings smaller than wild type

Reference: patent publication US20110118192A1, “METHODS AND COMPOSITIONS FOR TREATING T-CELL LEUKEMIA” (priority 2007, published 2011)
